Measured values as given in patent US20090208508A1, “NOVEL USE OF UBIQUITIN C-TERMINAL HYDROLASE-L1” (SK CORPORATION, priority 2005, published 2009).

Tests used:
UCH-L1 [1] = test: Preliminary experiments: UCH-L1 expression level with siRNA on human-base sequences; type: cell-based
UCH-L1 [2] = test: Western blotting of UCH-L1 expression in B16F10 stable cells expressing UCH-L1 specific RNAi (lentivirus); type: cell-based, mouse; settings: Zeocin-selected, in comparison with normal B16F10 cells and cells expressing irrelevant RNAi (SEQ ID No. 3)
Procedure: The expression level of UCH-L1 in B16F10 mouse melanoma cell line was analyzed by using the Western blotting with anti-UCH-L1 antibody in comparison with that of H157 lung cancer cell line overexpressing UCH-L1. It was determined that UCH-L1 is expressed also in B16F10 cell lines.
B16F10 cells (2.5×10^5 cells, 70˜80% confluency) were seeded on the cell culture dish. After 24 h, these cells were infected with 1 mL of lentivirus (VCA™, Vectorcorea, Inc., Seoul, Korea) expressing irrelevant RNAi or UCH-L1 specific RNAi. 500 μL ( ? ) (virus titer 1[…]10^7 IFU/mL) of lentivirus expressing the sequence specific shRNAi (SEQ ID Nos. 3, 8, 9, and 10) was used for infection of 2.5×10^5 of B16F10 cells.
Polyburene ([…]) was added thereto, then the cell culture dish was shaken slowly up and down. After incubation for 6 h at 37[…] under 5% CO2, the virus soup was changed with the RPMI-1640 supplemented with 10% FBS. B16F10 cells were infected at twice with lentivirus on 24th hour after the first infection. However the incubation time for second infection was 12 h, not 6 h. After 24 h from the second infection, B16F 10 cells were harvested with trypsin and subcultured on the other dish by diluting the cells with RPMI-1640 (1/16 dilution).
After 24 h, cells were maintained with the cell culture media with 5 μg/mL of Zeocin. For about 14 days, the cell culture media was changed with fresh media containing same amount of Zeocin every three days. On 14th day after start of selection with Zeocin, only cells having the resistance to Zeocin were survival and these cells were infected with lentivirus stably expressing UCH-L1 specific RNAi (shRNAi, short hairpin RNA). On 14th day after start of selection with Zeocin, the colony was formed by the cells having the resistance to Zeocin. The colonized cells were selected and re-subcultured with fresh media. From this method, we could prepare UCH-L1 expression reduced stable cell lines. […]

[3] = system: B16F10 mouse melanoma cells; test: Experimental pulmonary metastasis: B16F10 stable cells injected into tail vein, black colonies on lung surface counted; type: in vivo, BALB/C nude mouse; settings: 1x10^6 cells single-injected into tail vein, 14th day after injection, vs control B16F10 cells expressing irrelevant RNAi
Procedure: We tried to elucidate whether UCH-L1 is a key target molecule related to cancer metastasis through the experimental metastasis using animal model. Normal B16F10 mouse melanoma cells are highly invasive and its first target organ in metastatic process is lung. Using lentivirus-based system, we prepared the B16F10 stable cells in which UCH-L1 was knock-downed.
After preparing B16F10 stable cells, we examined whether the metastasis to lung was decreased when the B16F 10 stable cells were injected intravenously into the tail vein.
As stated above, after the UCH-L1 expression knock-downed B 16F 10 stable cells were selected with Zeocin, these cells (1[…]10^6 cells) were single-injected into the tail vein of BALB/C nude mouse. On 14th day after injection, the metastasis to lung was investigated. (For control set, BALB/C mouse were injected with same amount of B16F10 stable cells expressing irrelevant RNAi (control lentiviral vector))

UCH-L1 [4] = test: Preliminary experiments: UCH-L1 expression level with siRNA on mouse-base sequences; type: cell-based

Row | Substance | expression level of UCH-L1 (UCH-L1 [1]) | expression of UCH-L1 (Western blotting) (UCH-L1 [2]) | reduction of metastasis to lung (black spherical colonies on lung surface) [3] [%] | expression level of UCH-L1 (UCH-L1 [4])
1 | ha: UCH-L1 specific shRNAi (SEQ ID No. 8), target sequence common to human and mouse, expressed by lentivirus (guide CCCGAGATGCTGAACAAAG; listed as Homo sapiens) | effectively reduced | reduced | 92 | effectively reduced
2 | ma: UCH-L1 specific shRNAi (SEQ ID No. 9), mouse target sequence, expressed by lentivirus (guide AGCTGAAGCCGATGGAGATTA; listed as Mus musculus) |  | not reduced |  | 
3 | mb: UCH-L1 specific shRNAi (SEQ ID No. 10), mouse target sequence, expressed by lentivirus (guide CCTAAAGTTTACTTCATGAAG; listed as Mus musculus) |  | reduced | 62 | effectively reduced
